In brackets after ≈: the same amount, converted by molar mass.
Columns and labels:
Type in all cases: cell-based
[1] = tested on: C. tropicalis; assay: MIC by broth dilution method, Candida tropicalis; settings: Candida tropicalis; C. tropicalis; broth dilution method; read-out: Minimum Inhibitory Concentration, Broth
Text: (§1) The preparation of the nutrient media, the antifungal agents and the fungi to be tested in the present invention are similar to those reported in S. Shadomy and A. Espinel-Ingroff, "Susceptibility Testing Of Antifungal Agents", Ch. 63, pp. 569-574 in E. H. Lennett, E. H. Spaulding, and J. P. Truant, Eds., Manual Of Clinical Microbiology, 2nd Ed., American Society for Microbiology, Washington, D.C. (1974). This publication describes the susceptibility testing of antifungal agents, namely, amphotericin B, nystatin and 5-fluoro-cytosine (5-FC), by the "broth dilution method" and the "semisolid agar dilution method". At pages 570-571, it is stated:
(§2) In 10 duplicate runs with each strain tested, the variation in minimum inhibitory concentration averaged ±0.05 μg/ml.
(§3) *Broth dilution method conducted in accordance with S. Shadomy and E.
(§4) Espinel-Ingroff, "Susceptibility Testing of Antifungal Agents", Ch. 63,
(§5) pp. 569-574 in E. H. Spaulding and J. P. Truant, Eds., Manual Of Clinical
(§6) Microbiology, 2nd Ed., American Society for Microbiology, Washington, […]

[2] = tested on: Torulopsis glabrata; assay: MIC by impregnated disk method, Torulopsis glabrata; settings: Nakaseomyces glabratus; Torulopsis glabrata; disk method; read-out: Minimum Inhibitory Concentration, Disk
Experimental: (§7) Stock solutions of the antifungal agents to be tested are preferably prepared by diluting the antifungal agents in the proper nutrient medium. It is presently preferred to prepare dilutions in 10 ml of the proper medium to give the following final concentrations when applied to the disks (all quantities in micrograms per milliliter): 0.05, 0.08, 0.09, 0.1; 0.1 increment increases to 0.9, 1.0; 0.5 increment increases to 10.0; and 12.0, 14.0, 20.0, 25.0 and 50.0. Disks have been prepared by placing 0.05 ml of the above dilutions of antifungal agent containing medium on 6.5 mm diameter disks in 0.01 or 0.02 ml increments. The impregnated disks are then allowed to dry at a temperature preferably below about 10° C. […] The disks may also be dried by a lyophilization or freeze drying process.
(§8) To perform the tests in accordance with the present inventions, disks impregnated with various concentrations of antifungal agent and nutrient medium and a control disk impregnated only with the corresponding nutrient medium are placed on the fungus to be tested which has been applied to the non-nutrient medium. The disks are the inoculated non-nutrient medium are then incubated at a suitable temperature for a sufficient time to promote growth of the fungus. Any temperature is suitable if it will promote growth of the fungus without adversely affecting the fungus or the activity of the antifungal agent or agents tested. The time of incubation can be determined by observing the extent of growth around the control disk. […] The zones of growth or inhibition around the disks were read at 6, 12, 24, 36 and 48 hours after the disks were placed on the tested fungus.
(§9) The minimum inhibitory concentration is defined as the lowest concentration of antifungal agent which inhibits visible growth. […]
(§10) Several test disks and a control disk were placed in each petri dish containing the inoculated agar. The disks and petri dishes were then incubated at 29° C. and the minimum inhibitory concentration of the various concentrations of the antifungal agents were read at 6, 12, 24, 36 and 48 hours. […]

[3] = tested on: Cryptococcus neoformans; assay: MIC by impregnated disk method, Cryptococcus neoformans; settings: Cryptococcus neoformans
Experimental: as §7, §8
(§11) The minimum inhibitory concentration is defined as the lowest concentration of antifungal agent which inhibits visible growth. The disks containing concentrations of antifungal agents below the minimum inhibitory concentration show circumscribed growth of the fungus around the disk. Disks containing concentrations of antifungal agent at or above the minimum inhibitory concentration show no circumscribed growth.
(§12) Clinical isolates of various fungi listed in Table 1 were obtained from different patients diagnosed as having fungal infections. The fungal inocula were prepared by using a 24-48 hour cultures grown in yeast nitrogen base containing 1% glucose and 0.15% asparagine. After centrifuging, the supernatant was removed, the sedimented cells were washed twice with sterile distilled water and a cell suspension was adjusted to 80% transmission at 520 nm using a Beckman DB-GT grating spectrophotometer.
(§13) Sterile liquified 2% purified agar was placed in petri dishes and allowed to harden. The surface of the agar was inoculated with a sterile cotton swab saturated with a suspension of an organism. The uniformly swabbed plates were then allowed to dry.
(§14) Disks were prepared using the dilutions described above for amphotericin B, nystatin and 5-fluorocytosine. 0.05 ml of the dilutions of each antifungal agent diluted with the appropriate nutrient medium were pipetted on 6.5 mm diameter disks. The disks were dried at 4° C. after each application. Control disks were also prepared.
(§15) Several test disks and a control disk were placed in each petri dish containing the inoculated agar. The disks and petri dishes were then incubated at 29° C. and the minimum inhibitory concentration of the various concentrations of the antifungal agents were read at 6, 12, 24, 36 and 48 hours.
as §2

[4] = tested on: C. tropicalis; assay: MIC by impregnated disk method, Candida tropicalis; settings: Candida tropicalis; C. tropicalis; disk method; read-out: Minimum Inhibitory Concentration, Disk
Experimental: as §7, §8, §9, §10

[5] = tested on: Geotrichum candidum; assay: MIC by broth dilution method, Geotrichum candidum; settings: broth dilution method, read-out: Minimum Inhibitory Concentration, Broth
Text: as §1, §2, §3, §4, §5, §6

[6] = tested on: Geotrichum candidum; assay: MIC by impregnated disk method, Geotrichum candidum; settings: disk method, read-out: Minimum Inhibitory Concentration, Disk
Experimental: as §7, §8, §9, §10

[7] = tested on: Saccharomyces cerevisiae; assay: MIC by broth dilution method, Saccharomyces cerevisiae; settings: Saccharomyces cerevisiae
Text: as §1, §2, §3, §4, §5, §6

[8] = tested on: Trichosporon sp.; assay: MIC by impregnated disk method, Trichosporon sp.; settings: Trichosporon sp.; disk method; read-out: Minimum Inhibitory Concentration, Disk
Experimental: as §7, §8, §9, §10

[9] = tested on: Saccharomyces cerevisiae; assay: MIC by impregnated disk method, Saccharomyces cerevisiae; settings: Saccharomyces cerevisiae
Experimental: as §7, §8, §11, §12, §13, §14, §15, §2

[10] = tested on: Trichosporon sp.; assay: MIC by broth dilution method, Trichosporon sp.; settings: Trichosporon sp.; broth dilution method; read-out: Minimum Inhibitory Concentration, Broth
Text: as §1, §2, §3, §4, §5, §6

[11] = tested on: Candida albicans; assay: MIC by impregnated disk method, Candida albicans; settings: Candida albicans
Experimental: as §7, §8, §11, §12, §13, §14, §15, §2

[12] = tested on: C. parapsilosis; assay: MIC by broth dilution method, Candida parapsilosis; settings: Lodderomyces parapsilosis
Text: as §1, §2, §3, §4, §5, §6

[13] = tested on: C. parapsilosis; assay: MIC by impregnated disk method, Candida parapsilosis; settings: Lodderomyces parapsilosis
Experimental: as §7, §8, §11, §12, §13, §14, §15, §2

[14] = tested on: Cryptococcus neoformans; assay: MIC by broth dilution method, Cryptococcus neoformans; settings: Cryptococcus neoformans
Text: as §1, §2, §3, §4, §5, §6

[15] = tested on: Candida albicans; assay: MIC by broth dilution method, Candida albicans; settings: Candida albicans
Text: as §1, §2, §3, §4, §5, §6

[16] = tested on: Torulopsis glabrata; assay: MIC by broth dilution method, Torulopsis glabrata; settings: Nakaseomyces glabratus; Torulopsis glabrata; broth dilution method; read-out: Minimum Inhibitory Concentration, Broth
Text: as §1, §2, §3, §4, §5, §6

MIC [1]: 6 µg/mL (≈ 46.5 µM)
MIC [2]: 0.8 µg/mL (≈ 6.2 µM)
MIC ([3]; C. neoformans isolate 2, read-out: Minimum Inhibitory Concentration, Disk): 15 µg/mL (≈ 116 µM)
MIC ([3]; Cryptococcus neoformans isolate 1, read-out: Minimum Inhibitory Concentration, Disk): 10 µg/mL (≈ 77.5 µM)
MIC [4]: 7.5 µg/mL (≈ 58.1 µM)
MIC [5]: 3 µg/mL (≈ 23.2 µM)
MIC [6]: 2.5 µg/mL (≈ 19.4 µM)
MIC ([7]; S. cerevisiae isolate 2, read-out: Minimum Inhibitory Concentration, Broth): 1 µg/mL (≈ 7.75 µM)
MIC ([7]; Saccharomyces cerevisiae isolate 1, read-out: Minimum Inhibitory Concentration, Broth): 2.5 µg/mL (≈ 19.4 µM)
MIC [8]: 50 µg/mL (≈ 387 µM)
MIC ([9]; S. cerevisiae isolate 2, read-out: Minimum Inhibitory Concentration, Disk): 0.8 µg/mL (≈ 6.2 µM)
MIC ([9]; Saccharomyces cerevisiae isolate 1, read-out: Minimum Inhibitory Concentration, Disk): 1.5 µg/mL (≈ 11.6 µM)
MIC [10]: 50 µg/mL (≈ 387 µM)
MIC ([11]; isolate 1, read-out: Minimum Inhibitory Concentration, Disk): 8.5 µg/mL (≈ 65.8 µM)
MIC ([11]; isolate 2, read-out: Minimum Inhibitory Concentration, Disk): 0.3 µg/mL (≈ 2.32 µM)
MIC ([11]; isolate 3, read-out: Minimum Inhibitory Concentration, Disk): 2 µg/mL (≈ 15.5 µM)
MIC ([11]; isolate 4, read-out: Minimum Inhibitory Concentration, Disk): 6 µg/mL (≈ 46.5 µM)
MIC ([11]; isolate 5, read-out: Minimum Inhibitory Concentration, Disk): 0.8 µg/mL (≈ 6.2 µM)
MIC ([11]; isolate 6, read-out: Minimum Inhibitory Concentration, Disk): 0.5 µg/mL (≈ 3.87 µM)
MIC ([12]; C. parapsilosis isolate 1, read-out: Minimum Inhibitory Concentration, Broth): 0.8 µg/mL (≈ 6.2 µM)
MIC ([12]; C. parapsilosis isolate 2, read-out: Minimum Inhibitory Concentration, Broth): 2 µg/mL (≈ 15.5 µM)
MIC ([13]; C. parapsilosis isolate 1, read-out: Minimum Inhibitory Concentration, Disk): 0.9 µg/mL (≈ 6.97 µM)
MIC ([13]; C. parapsilosis isolate 2, read-out: Minimum Inhibitory Concentration, Disk): 1.5 µg/mL (≈ 11.6 µM)
MIC ([14]; C. neoformans isolate 2, read-out: Minimum Inhibitory Concentration, Broth): 12 µg/mL (≈ 93 µM)
MIC ([14]; Cryptococcus neoformans isolate 1, read-out: Minimum Inhibitory Concentration, Broth): 8.5 µg/mL (≈ 65.8 µM)
MIC ([15]; isolate 1, read-out: Minimum Inhibitory Concentration, Broth): 6.5 µg/mL (≈ 50.4 µM)
MIC ([15]; isolate 2, read-out: Minimum Inhibitory Concentration, Broth): 0.6 µg/mL (≈ 4.65 µM)
MIC ([15]; isolate 3, read-out: Minimum Inhibitory Concentration, Broth): 3 µg/mL (≈ 23.2 µM)
MIC ([15]; isolate 4, read-out: Minimum Inhibitory Concentration, Broth): 3.5 µg/mL (≈ 27.1 µM)
MIC ([15]; isolate 5, read-out: Minimum Inhibitory Concentration, Broth): 0.7 µg/mL (≈ 5.42 µM)
MIC ([15]; isolate 6, read-out: Minimum Inhibitory Concentration, Broth): 0.7 µg/mL (≈ 5.42 µM)
MIC [16]: 0.7 µg/mL (≈ 5.42 µM)
Structure (SMILES): Nc1nc(=O)[nH]cc1F [5-Fluorocytosine, 5-fluorocytosine]
